Results published in the NIST ThermoML archive (doi:10.1016/j.tca.2010.04.013).

Key:
[1] = relative permittivity at various frequencies (dimensionless); xn = mol fraction of the nth substance listed; conditions: 303.15 K, 101.3 kPa, Liquid, Frequency=1 MHz, capacitance measurements at 1 MHz
[2] = relative permittivity at various frequencies (dimensionless); conditions: 303.15 K; 101.3 kPa; Liquid; Frequency=1 MHz; capacitance measurements at 1 MHz

CN(C)C=O [dimethylformamide] + OCCO
Conditions	relative permittivity
[1], x2 = 0	36.55

NC=O [formamide] + OCCO
[1]
Conditions	relative permittivity
x2 = 0	106.14
x2 = 0.048	103.75
x2 = 0.099	100.44
x2 = 0.151	96.49
x2 = 0.206	92.28
x2 = 0.263	88.7
x2 = 0.322	84.61
x2 = 0.384	80.3
x2 = 0.449	75.79
x2 = 0.517	70.99
x2 = 0.588	66.04
x2 = 0.662	61.55
x2 = 0.74	56.35
x2 = 0.823	51.05
x2 = 0.909	46.12

CN(C)C=O [dimethylformamide] + CCO
[1]
Conditions	relative permittivity
x2 = 0	36.55
x2 = 0.087	35.57
x2 = 0.169	34.72
x2 = 0.249	33.96
x2 = 0.325	32.98
x2 = 0.399	32.16
x2 = 0.469	31.39
x2 = 0.537	30.57
x2 = 0.603	29.63
x2 = 0.666	28.78
x2 = 0.726	27.8
x2 = 0.785	27.05
x2 = 0.841	26.22
x2 = 0.896	25.39
x2 = 0.949	24.65

CN(C)C=O [dimethylformamide]
Conditions	relative permittivity
[2]	36.55

CNC=O [N-methylformamide] + CCO
[1]
Conditions	relative permittivity
x2 = 0	169.76
x2 = 0.101	144.63
x2 = 0.202	123.72
x2 = 0.302	104.17
x2 = 0.402	85.99
x2 = 0.502	71.06
x2 = 0.602	57.8
x2 = 0.702	46.91
x2 = 0.802	37.6
x2 = 0.901	29.54

NC=O [formamide]
Conditions	relative permittivity
[2]	106.14

NC=O [formamide] + CCO
[1]
Conditions	relative permittivity
x2 = 0	106.14
x2 = 0.046	100.82
x2 = 0.095	95.19
x2 = 0.146	89.27
x2 = 0.199	82.58
x2 = 0.254	76.43
x2 = 0.312	70.03
x2 = 0.374	64.23
x2 = 0.438	57.92
x2 = 0.506	51.93
x2 = 0.577	46.28
x2 = 0.652	41.17
x2 = 0.732	36.15
x2 = 0.816	31.37
x2 = 0.905	27.6

CNC=O [N-methylformamide] + OCCO
[1]
Conditions	relative permittivity
x2 = 0	169.76
x2 = 0.105	139.93
x2 = 0.209	118.26
x2 = 0.312	102.12
x2 = 0.413	87.49
x2 = 0.514	76.46
x2 = 0.613	67.14
x2 = 0.711	59.59
x2 = 0.809	52.6
x2 = 0.905	46.26

CNC=O [N-methylformamide]
Conditions	relative permittivity
[2]	169.76
